From patent publication US20080103173A1, “Compounds Having Activity At Nk3 Receptor And Uses Thereof In Medicine” (SMITHKLINE BEECHAM CORPORATION, priority 2004, published 2008)

Biological target: T1, NK3 receptor (Homo sapiens, UniProt P29371)
T1 construct: expressed in transfected cells; host or cells: CHO cell lines (plasma membranes)
T1 sequence (P29371 1-465): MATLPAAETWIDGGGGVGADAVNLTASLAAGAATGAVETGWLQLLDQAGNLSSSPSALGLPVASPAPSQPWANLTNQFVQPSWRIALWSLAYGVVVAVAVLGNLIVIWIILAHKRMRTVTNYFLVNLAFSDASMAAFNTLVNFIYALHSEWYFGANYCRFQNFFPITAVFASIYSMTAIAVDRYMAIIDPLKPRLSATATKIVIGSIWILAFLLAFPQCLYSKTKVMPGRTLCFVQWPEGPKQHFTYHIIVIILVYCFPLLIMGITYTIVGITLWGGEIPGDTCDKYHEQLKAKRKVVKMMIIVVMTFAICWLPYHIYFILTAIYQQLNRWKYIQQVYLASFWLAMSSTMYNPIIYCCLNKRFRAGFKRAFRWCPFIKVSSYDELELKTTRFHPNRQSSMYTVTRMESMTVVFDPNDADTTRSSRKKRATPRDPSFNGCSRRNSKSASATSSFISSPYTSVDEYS
Assay: NK3 binding affinity, scintillation proximity assay (SPA), 125I [MePhe7]-NKB
Settings: membranes from CHO cell lines expressing NK3 receptors; radioligand 125I [MePhe7]-NKB
Method: a) Measurement of NK3 Binding Affinity
The NK3 binding affinity of the compounds of the invention was determined using the following scintillation proximity assay (SPA) (see H. M. Sarau et al, J. Pharmacol. Experimental Therapeutics 1997, 281(3), 1303-1311; H. M. Sarau et al, J. Pharmacol. Experimental Therapeutics 2000, 295(1), 373-381; G. A. M. Giardina et al J. Med. Chem 1999, 42, 1053-1065). Polystyrene Leadseeker WGA-SPA beads (Amersham Biosciences) were mixed with plasma membrane prepared from CHO cell lines expressing NK3 receptors in a bead/membrane ratio of 20:1 (w/w) in assay buffer (75 mM Tris pH 7.8, 75mM NaCl, 4 mM MnCl2, 1 mM EDTA, 0.05% Chaps, 1 mM PMSF). The mixture was placed on ice for 20 minutes to allow the formation of membrane/bead complex before BSA was added to a final concentration of 1%. After another 20 minutes incubation on ice, the bead/membrane complex was washed twice and suspended in assay buffer. ^125I [MePhe7]-NKB was then added to the bead/membrane complex. […] After 2-3 hours incubation at room temperature with shaking, the plates were spun for 2 min at 1100 rpm and measured in Viewlux imager (PerkinElmer) for 5 minutes with a 618-nm filter. Inhibition of the radioactive ligand binding to the NK3 receptor was measured by the reduction of signal. pKi was calculated using Kd of the radioactive ligand determined in a separate experiment.

Ki: 3.16 nM
Compound: O=C(N[C@H](c1cccc(F)c1)C1CC1)c1c(CN2CCCC2=O)c(-c2ccccc2)nc2ccccc12 [Example 1, N-[(S)-Cyclopropyl(3-fluorophenyl)methyl]-3-[(2-oxo-1-pyrrolidinyl)methyl]-2-phenyl-4-quinolinecarboxamide]
